Test results published in publication PMC2989642 (The European journal of neuroscience, 2010).
“And” between values parts separate entries of the source, which are not always exact repeats. Equal values may be shown once. Read-outs that look alike come from different tables or passages of the source.

Assays:
[1] = biological target: α3β4 receptors (in the α5β2 KO) (Mus musculus, UniProt Q8R493+Q8R4G9); assay: cell-based
[2] = biological target: α3β4α5 receptors (in the β2 KO) (Mus musculus, UniProt Q8R493+Q8R4G9); assay type: cell-based
[3] = biological target: α3β2 receptors (in the α5β4 KO) (Mus musculus, UniProt Q8R4G9+Q9ERK7); assay: cell-based; assay type: cell-based
α7 nAChRs [4] = assay type: cell-based, mouse
α7 nAChRs [5] = assay type: cell-based, mouse; remark: listed apart in the source
[6] = biological target: nAChRs in adult (intact) mouse SCG; conditions: read-out: KD of [3H]-epibatidine binding, ref Del Signore et al., 2002; cited from earlier work
[7] = biological target: hetero-oligomeric nAChR binding sites in SCG membranes (Mus musculus, UniProt Q8R493+Q8R4G9)
hα3α5β4 = conditions: probed with 300 μM ACh; ref Nelson et al., 2001; cited from earlier work
hα3β4 = conditions: ref Nelson et al., 2001, cited from earlier work
human α3β4 receptors = conditions: ref Chavez-Noriega et al., 1997; cited from earlier work
rα3β4 receptors = conditions: ref Wong et al., 1995; cited from earlier work
α7 nAChRs [8] = biological target: T1, α7 nAChRs (Mus musculus, UniProt P49582); assay type: cell-based
α7 receptors = α7 receptors (Gallus gallus, UniProt P22770); assay type: cell-based, chick
α7 nAChRs [9] = biological target: T1, α7 nAChRs; assay type: cell-based; remark: listed apart in the source
[10] = test system: SCG neurons from α5α7β2 KO animals; assay type: cell-based, mouse

T1 sequence (P49582 23-502): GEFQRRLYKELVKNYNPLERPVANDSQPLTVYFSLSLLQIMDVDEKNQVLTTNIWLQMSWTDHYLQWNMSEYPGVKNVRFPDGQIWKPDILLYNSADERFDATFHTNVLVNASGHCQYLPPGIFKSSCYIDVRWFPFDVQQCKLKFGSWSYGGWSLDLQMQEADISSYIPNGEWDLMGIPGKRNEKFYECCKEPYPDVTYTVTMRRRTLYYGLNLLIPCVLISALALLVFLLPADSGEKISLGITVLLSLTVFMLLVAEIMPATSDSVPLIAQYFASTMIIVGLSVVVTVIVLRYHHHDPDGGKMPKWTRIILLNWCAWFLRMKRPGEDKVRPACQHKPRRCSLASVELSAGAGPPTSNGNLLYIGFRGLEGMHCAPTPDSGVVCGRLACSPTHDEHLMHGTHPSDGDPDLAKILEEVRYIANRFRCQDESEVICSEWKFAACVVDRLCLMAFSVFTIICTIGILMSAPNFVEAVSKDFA
Chain of α3β4α5 receptors (in the β2 KO) (Q8R4G9 26-499): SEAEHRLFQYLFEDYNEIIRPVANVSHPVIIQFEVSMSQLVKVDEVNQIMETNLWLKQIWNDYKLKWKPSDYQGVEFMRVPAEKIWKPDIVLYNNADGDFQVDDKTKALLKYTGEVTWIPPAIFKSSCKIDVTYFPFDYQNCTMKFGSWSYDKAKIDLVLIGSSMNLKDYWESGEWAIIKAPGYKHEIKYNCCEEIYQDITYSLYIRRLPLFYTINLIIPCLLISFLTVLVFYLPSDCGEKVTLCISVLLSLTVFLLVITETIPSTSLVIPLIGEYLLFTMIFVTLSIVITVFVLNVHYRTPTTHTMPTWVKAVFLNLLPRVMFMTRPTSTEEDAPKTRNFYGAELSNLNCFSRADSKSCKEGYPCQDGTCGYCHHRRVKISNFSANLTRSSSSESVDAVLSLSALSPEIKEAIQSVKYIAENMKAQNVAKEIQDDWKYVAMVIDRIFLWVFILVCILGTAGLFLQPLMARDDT
Chain of α3β4α5 receptors (in the β2 KO) (Q8R493 21-495): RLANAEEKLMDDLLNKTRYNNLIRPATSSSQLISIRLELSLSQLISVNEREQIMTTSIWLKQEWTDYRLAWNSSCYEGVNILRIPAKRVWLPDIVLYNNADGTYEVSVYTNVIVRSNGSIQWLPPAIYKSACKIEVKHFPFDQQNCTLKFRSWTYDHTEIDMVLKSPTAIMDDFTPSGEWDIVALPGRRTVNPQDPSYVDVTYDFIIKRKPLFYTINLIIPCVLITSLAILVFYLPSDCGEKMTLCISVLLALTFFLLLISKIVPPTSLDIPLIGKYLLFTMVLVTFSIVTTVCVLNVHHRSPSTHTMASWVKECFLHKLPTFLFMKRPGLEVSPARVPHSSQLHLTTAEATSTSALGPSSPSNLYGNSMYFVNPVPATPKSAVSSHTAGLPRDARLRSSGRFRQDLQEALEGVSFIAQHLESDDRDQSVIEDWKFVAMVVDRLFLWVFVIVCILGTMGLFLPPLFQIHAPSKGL
Chain of α3β4α5 receptors (in the β2 KO) (Q2MKA5 30-467 partner): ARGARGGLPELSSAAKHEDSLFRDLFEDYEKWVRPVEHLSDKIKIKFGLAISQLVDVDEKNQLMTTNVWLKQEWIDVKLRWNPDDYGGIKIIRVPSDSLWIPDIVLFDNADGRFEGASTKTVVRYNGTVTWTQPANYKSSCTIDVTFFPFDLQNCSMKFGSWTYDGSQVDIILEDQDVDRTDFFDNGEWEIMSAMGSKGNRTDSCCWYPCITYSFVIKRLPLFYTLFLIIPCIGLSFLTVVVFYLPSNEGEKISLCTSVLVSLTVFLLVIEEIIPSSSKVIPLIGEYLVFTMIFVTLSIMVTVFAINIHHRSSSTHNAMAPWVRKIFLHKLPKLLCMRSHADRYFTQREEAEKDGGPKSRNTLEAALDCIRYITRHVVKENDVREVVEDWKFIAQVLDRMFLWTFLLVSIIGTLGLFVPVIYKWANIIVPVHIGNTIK
Chain of α3β2 receptors (in the α5β4 KO) (Q8R4G9 26-499): as the sequence (Q8R4G9 26-499) above
Chain of α3β2 receptors (in the α5β4 KO) (Q9ERK7 26-501): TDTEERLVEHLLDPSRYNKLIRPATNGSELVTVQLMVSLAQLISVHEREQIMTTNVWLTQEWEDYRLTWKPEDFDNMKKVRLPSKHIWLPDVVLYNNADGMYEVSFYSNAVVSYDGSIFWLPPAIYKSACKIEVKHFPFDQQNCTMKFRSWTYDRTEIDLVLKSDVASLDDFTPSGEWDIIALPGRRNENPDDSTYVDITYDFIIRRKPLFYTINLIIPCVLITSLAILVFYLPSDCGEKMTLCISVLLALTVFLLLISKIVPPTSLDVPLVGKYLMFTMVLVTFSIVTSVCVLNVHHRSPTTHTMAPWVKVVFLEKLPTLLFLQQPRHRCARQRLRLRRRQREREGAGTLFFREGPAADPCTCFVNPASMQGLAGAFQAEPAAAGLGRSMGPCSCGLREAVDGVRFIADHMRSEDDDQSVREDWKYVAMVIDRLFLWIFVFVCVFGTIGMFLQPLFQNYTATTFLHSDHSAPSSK
Chain of α3β4 receptors (in the α5β2 KO) (Q8R4G9 26-499): as the sequence (Q8R4G9 26-499) above
Chain of α3β4 receptors (in the α5β2 KO) (Q8R493 21-495): as the sequence (Q8R493 21-495) above
Chain of α7 receptors (P22770 23-502 limits assumed): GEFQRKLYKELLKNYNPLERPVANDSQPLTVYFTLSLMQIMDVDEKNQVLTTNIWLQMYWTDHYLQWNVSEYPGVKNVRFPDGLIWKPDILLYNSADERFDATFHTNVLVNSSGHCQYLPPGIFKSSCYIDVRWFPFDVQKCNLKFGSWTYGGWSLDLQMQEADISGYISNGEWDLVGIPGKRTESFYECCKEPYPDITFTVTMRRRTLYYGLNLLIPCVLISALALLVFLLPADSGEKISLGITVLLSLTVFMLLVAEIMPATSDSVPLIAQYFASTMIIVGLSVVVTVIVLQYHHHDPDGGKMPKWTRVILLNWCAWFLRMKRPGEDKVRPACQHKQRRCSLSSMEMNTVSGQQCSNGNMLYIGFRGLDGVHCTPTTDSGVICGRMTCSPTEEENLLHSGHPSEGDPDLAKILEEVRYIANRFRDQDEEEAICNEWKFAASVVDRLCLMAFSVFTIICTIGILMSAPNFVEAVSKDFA
Chain of hetero-oligomeric nAChR binding sites in SCG membranes (Q8R4G9 26-499): as the sequence (Q8R4G9 26-499) above
Chain of hetero-oligomeric nAChR binding sites in SCG membranes (Q8R493 21-495): as the sequence (Q8R493 21-495) above
Chain of hetero-oligomeric nAChR binding sites in SCG membranes (Q2MKA5 30-467 partner): as the sequence (Q2MKA5 30-467 partner) above
Chain of hetero-oligomeric nAChR binding sites in SCG membranes (Q9ERK7 26-501 partner): as the sequence (Q9ERK7 26-501) above

C[N+]1(C)CCN(c2ccccc2)CC1.[I-] [DMPP, 1,1-dimethyl-4-phenylpiperazinium iodide]
Hill coefficient [1]: 1.91 ± 0.06
EC50 ([1]; EC50): 19 ± 0.76 µM
EC50 ([1]; fictitious EC50): 16.1 µM
EC50 [2]: 23 ± 1.17 µM
Hill coefficient [2]: 1.79 ± 0.08
EC50 ([2]; read-out: fictitious EC50): 39.2 µM
EC50 [3]: 11 ± 1.79 µM
Hill coefficient [3]: 1.21 ± 0.12

CCN1C[C@]2(COC(=O)c3ccccc3N3C(=O)C[C@H](C)C3=O)CC[C@H](OC)[C@@]34[C@@H]5C[C@H]6[C@H](OC)[C@@H]5[C@](O)(C[C@@H]6OC)[C@@](O)([C@@H](OC)[C@H]23)[C@@H]14 [MLA, methyllycaconitine]
effect of MLA on peak currents in response to 500 μM ACh (α7 nAChRs [4]): unaffected
effect of MLA on peak currents in response to 500 μM ACh (α7 nAChRs [5]): unaffected

Clc1ccc(C2CC3CCC2N3)cn1 (racemic) [[^3H]-epibatidine, [5,6.bicycloheptyl-^3H](+/−)epibatidine]
Kd [6]: 0.000137 µM
Bmax of [3H]-epibatidine binding ([7]; averaged from 4 experiments, P18 WT SCG membranes): 345.8 ± 25.6 fmol/mg protein
Bmax of [3H]-epibatidine binding ([7]; single experiment shown in Fig. 1A): 371.2 ± 13.5 fmol/mg protein

CC(=O)OCC[N+](C)(C)C [ACh, acetylcholine]
Af (fast amplitude, share of current) [1]: 13.0 ± 0.7 % ^1
Af + As + C (total amplitude) [1]: 3747 ± 215 pA ^6
As (slow amplitude, share of current) [1]: 56.3 ± 2.3 % ^3
C (plateau, share of current) [1]: 30.5 ± 2.8 % ^5
Hill coefficient [1]: 1.60 ± 0.05
Tf (fast decay time constant) [1]: 444 ± 22 (msec) ^2
Ts (slow decay time constant) [1]: 5495 ± 496 (msec) ^4
decay time constant (hα3α5β4): 563 ms
decay time constant (hα3β4; probed with 300 μM ACh): 495 ms
Af (fast amplitude, share of current) [2]: 16.8 ± 1.1 % ^1
Af + As + C (total amplitude) [2]: 3907 ± 230 pA ^6
Af, fast [2]: −809 pA
As (slow amplitude, share of current) [2]: 48.6 ± 2.6 % ^3
As, slow [2]: −2899 pA
C (plateau, share of current) [2]: 34.5 ± 2.8 % ^5
Tf (fast decay time constant) [2]: 449 ± 30 (msec) ^2
Tf, fast [2]: 0.47 s
Ts (slow decay time constant) [2]: 5592 ± 509 (msec) ^4
Ts, slow [2]: 6.98 s
plateau [2]: −943 pA
Af (fast amplitude, share of current) [3]: 50.5 ± 2.1%
Af + As + C (total amplitude) [3]: 1166 ± 77 pA
Af, fast [3]: −1171 pA
As (slow amplitude, share of current) [3]: 36.2 ± 1.7%
As, slow [3]: −472 pA
C (plateau, share of current) [3]: 13.2 ± 1.0%
EC50 [3]: 169 ± 25.2 µM
Hill coefficient [3]: 0.67 ± 0.04
Tf, fast [3]: 115 ms
Ts, slow [3]: 1477 ms
plateau [3]: −140 pA

O=c1cccc2n1C[C@@H]1CNC[C@H]2C1 [Cytisine, cytisine]
Hill coefficient [1]: 1.44 ± 0.06
low-concentration potency ratio cytisine/DMPP [1]: 1.23
potency ratio cytisine/DMPP (low concentration) [1]: 1.34
EC50 ([1]; EC50): 34.5 ± 2.26 µM
EC50 ([1]; fictitious EC50): 21.7 µM
potency ratio cytisine/DMPP (hα3β4): 1.29
potency ratio cytisine/DMPP (human α3β4 receptors): 4
potency ratio cytisine/DMPP (rα3β4 receptors): 1.47
EC50 [2]: 37.7 ± 2.43 µM
Hill coefficient [2]: 1.10 ± 0.02
low-concentration potency ratio cytisine/DMPP [2]: 0.76 ± 0.04 and 0.76
potency ratio cytisine/DMPP (low concentration) [2]: 0.67
EC50 ([2]; read-out: fictitious EC50): 26.2 µM

C[N+](C)(C)CCO [choline]
currents induced by choline (α7 nAChRs [8]): negligible currents
currents induced by choline (α7 nAChRs [5]): slowly decaying currents of considerable amplitude
Peak currents in response to 10 mM choline (α7 receptors): 40.4 ± 3.8 pA/pF

COc1cc(OC)c(NC(=O)Nc2cc(C)on2)cc1Cl [PNU-120596]
peak currents in response to 300 μM ACh in the presence of 10 μM PNU-120596 (α7 nAChRs [4]; n = 13): somewhat reduced
choline-induced currents with 10 μM PNU-120596 versus without (α7 nAChRs [8]): significantly larger
peak currents in response to 300 μM ACh in the presence of 10 μM PNU-120596 (α7 nAChRs [5]; n = 14): somewhat enhanced
choline-induced currents with 10 μM PNU-120596 versus without (α7 nAChRs [9]): significantly larger
choline-induced currents with 10 μM PNU-120596 versus without [10]: not significantly different
peak currents in response to 300 μM ACh in the presence of 10 μM PNU-120596 ([10]; n = 26): somewhat enhanced
Peak currents in response to 10 mM choline in the presence of PNU-120596 (α7 receptors): 1688 ± 204 pA/pF
